± gives the standard deviation of the averaged measurements.
What was measured:
Test in all cases: level (log10 ratio to DMSO vehicle control); higher = higher biomarker level / cell amount than vehicle control
Details in all cases: in DMSO
[1] = compound: FC(F)(F)C(F)(F)C(F)(F)C(F)(F)C(F)(F)C(F)(F)C(F)(F)C(F)(F)CCS [2-(Perfluorooctyl)ethanthiol]
Protocol: (§1)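 BioMAP Diversity Plus panel of 12 human primary cell co-culture systems (3C, 4H, LPS, SAg, BT, BF4T, BE3C, CASM3C, HDF3CGF, KF3CT, MyoF, Mphg). Compounds were added 1 h before stimulation and left for 24 h (MyoF 48 h; BT 72 h for soluble read-outs or 6 d for IgG). Biomarkers were read by ELISA, cytotoxicity by SRB, PBMC viability and proliferation by Alamar Blue. Each well value was divided by the mean of 8 DMSO control wells on the same plate and log10 transformed; duplicate blinded samples were tested at 4 concentrations.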

[2] = compound: FC(F)(F)C(F)(C(F)(F)F)C(F)(F)C(F)(F)CC1CO1 [3-(Perfluoro-3-methylbutyl)-1,2-propenoxide]
Protocol: as §1

[3] = compound: NC(=O)C(F)(F)C(F)(F)C(F)(F)F [Heptafluorobutyramide]
Protocol: as §1

[4] = compound: CCN(CCO)S(=O)(=O)C(F)(F)C(F)(F)C(F)(F)C(F)(F)C(F)(F)C(F)(F)C(F)(F)C(F)(F)F [N-Ethyl-N-(2-hydroxyethyl)perfluorooctanesulfonamide]
Protocol: as §1

[5] = compound: FC(F)(F)C(F)(F)C(F)(F)C(F)(F)C(F)(F)CCI [1-Iodo-1H,1H,2H,2H-perfluoroheptane]
Protocol: as §1

[6] = compound: NCC(F)(F)C(F)(F)C(F)(F)C(F)(F)C(F)(F)C(F)(F)C(F)(F)F [1H,1H-Perfluorooctylamine]
Protocol: as §1

[7] = compound: O=C(O)C(F)(F)C(F)(F)C(F)(F)C(F)(F)C(F)(F)C(F)(F)F [Perfluoroheptanoic acid]
Protocol: as §1

Test System | level (log10) ([1]; 6700 nM) | level (log10) ([1]; 20000 nM) | level (log10) ([2]; 6700 nM) | level (log10) ([2]; 20000 nM) | level (log10) ([3]; 6700 nM) | level (log10) ([3]; 20000 nM) | level (log10) ([3]; 60000 nM) | level (log10) ([4]; 6700 nM) | level (log10) ([4]; 20000 nM) | level (log10) ([5]; 6700 nM) | level (log10) ([5]; 20000 nM) | level (log10) ([5]; 60000 nM) | level (log10) ([6]; 6700 nM) | level (log10) ([6]; 20000 nM) | level (log10) ([6]; 60000 nM) | level (log10) ([7]; 6700 nM) | level (log10) ([7]; 20000 nM) | level (log10) ([7]; 60000 nM)
MyoF:PAI-I | -0.001 ± 0.0042 | -0.0005 ± 0.012 | -0.0015 ± 0.013 | -0.0035 ± 0.015 | 0.0035 ± 0.00071 | 0.01 ± 0.0014 | -0.0055 ± 0.016 | -0.0065 ± 0.0064 | -0.0085 ± 0.018 | -0.0005 ± 0.00071 | 0.0005 ± 0.00071 | -0.002 ± 0.0042 | 0 ± 0.016 | -0.002 ± 0.014 | -0.005 ± 0.013 | 0 ± 0.016 | -0.0215 ± 0.023 | 0.0025 ± 0.018
MyoF:TIMP-1 | -0.033 ± 0.014 | -0.0215 ± 0.005 | -0.0165 ± 0.022 | -0.047 ± 0.052 | -0.0285 ± 0.054 | -0.0325 ± 0.05 | -0.0435 ± 0.067 | -0.112 ± 0.011 | -0.0885 ± 0.0092 | 0.0095 ± 0.0064 | -0.009 ± 0.0028 | -0.038 ± 0.025 | 0.0045 ± 0.0092 | 0.01 ± 0.025 | -0.0005 ± 0.0021 | -0.011 ± 0.0042 | 0.0225 ± 0.0021 | 0.0515 ± 0.0064
lMphg:CCL2/MCP-1 | -0.0125 ± 0.0078 | -0.003 ± 0.02 | -0.0165 ± 0.012 | 0.0075 ± 0.012 | -0.0035 ± 0.0021 | -0.001 ± 0.038 | 0.0175 ± 0.042 | 0.007 ± 0.034 | 0.002 ± 0.023 | -0.005 ± 0.021 | -0.027 ± 0.016 | -0.037 ± 0.0071 | -0.03 ± 0.0099 | -0.0245 ± 0.016 | -0.0275 ± 0.04 | -0.0365 ± 0.021 | -0.019 ± 0.0042 | 0.027 ± 0.023
lMphg:CXCL8/IL-8 | -0.012 ± 0.016 | 0.008 ± 0.016 | 0.0165 ± 0.035 | 0.052 ± 0.023 | 0.0095 ± 0.035 | -0.0195 ± 0.0064 | 0.032 ± 0.038 | -0.047 ± 0.048 | -0.032 ± 0.016 | 0.005 ± 0.0057 | -0.01 ± 0.0099 | 0.0495 ± 0.025 | 0.008 ± 0.031 | 0.018 ± 0.025 | 0.01 ± 0.013 | -0.0125 ± 0.0035 | 0.032 ± 0.0042 | 0.18 ± 0.035
CASM3C:IL-6 | 0.0235 ± 0.09 | 0.0465 ± 0.035 | -0.02 ± 0.0057 | 0.007 ± 0.027 | -0.0275 ± 0.033 | -0.0105 ± 0.012 | 0.013 ± 0.042 | -0.0025 ± 0.0035 | -0.0255 ± 0.044 | -0.0145 ± 0.022 | -0.044 ± 0.0057 | -0.017 ± 0.018 | -0.0245 ± 0.037 | 0.0005 ± 0.057 | 0.035 ± 0.081 | -0.0135 ± 0.0078 | -0.0205 ± 0.021 | 0.008 ± 0.085
BE3C:Keratin 8/18 | -0.0025 ± 0.0021 | -0.009 ± 0.0014 | 0.0005 ± 0.03 | 0.001 ± 0.03 | -0.007 ± 0.0071 | -0.028 ± 0.0071 | -0.0265 ± 0.0078 | 0 ± 0.014 | -0.007 ± 0.014 | -0.019 ± 0.02 | -0.009 ± 0.034 | -0.02 ± 0.0071 | -0.009 ± 0.0071 | -0.024 ± 0.0099 | -0.0005 ± 0.0078 | -0.0135 ± 0.005 | -0.0135 ± 0.0078 | -0.0025 ± 0.012
